The source of these data is US8846947B2, “Benzimidazoles and related analogs as sirtuin modulators” (GlaxoSmithKline LLC, priority 2008, dated 2014).

The target in this assay is T1, SIRT1 (Homo sapiens, UniProt Q96EB6).
T1 sequence (Q96EB6 1-747): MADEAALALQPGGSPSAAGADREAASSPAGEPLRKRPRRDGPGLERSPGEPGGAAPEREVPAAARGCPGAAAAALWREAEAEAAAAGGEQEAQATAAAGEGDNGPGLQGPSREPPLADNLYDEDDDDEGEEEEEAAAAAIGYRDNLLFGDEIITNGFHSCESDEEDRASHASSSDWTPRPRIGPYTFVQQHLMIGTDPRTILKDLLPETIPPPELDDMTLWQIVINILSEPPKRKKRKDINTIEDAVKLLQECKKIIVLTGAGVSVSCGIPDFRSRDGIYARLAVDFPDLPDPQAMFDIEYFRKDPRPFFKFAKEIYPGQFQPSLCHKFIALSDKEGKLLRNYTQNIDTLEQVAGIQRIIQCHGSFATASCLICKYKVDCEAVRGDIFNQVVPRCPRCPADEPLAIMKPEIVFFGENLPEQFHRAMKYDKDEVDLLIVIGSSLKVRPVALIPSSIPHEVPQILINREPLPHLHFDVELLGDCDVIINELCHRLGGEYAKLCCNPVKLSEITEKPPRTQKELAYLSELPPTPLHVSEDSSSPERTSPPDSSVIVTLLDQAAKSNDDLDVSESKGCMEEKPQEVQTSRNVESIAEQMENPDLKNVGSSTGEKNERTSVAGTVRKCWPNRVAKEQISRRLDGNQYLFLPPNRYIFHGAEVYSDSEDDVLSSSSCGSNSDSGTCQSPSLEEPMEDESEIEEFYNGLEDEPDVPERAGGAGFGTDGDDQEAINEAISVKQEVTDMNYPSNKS
Nature of the assay: Mass spectrometry based SIRT1 deacetylase activation assay (acetylated p53-derived peptide substrate). The conditions noted are these: 0.5 μM peptide substrate, 120 μM βNAD+, 10 nM SIRT1, 25 minutes at 25° C. Type of assay: biochemical.
With `Cc1cnc(NC(=O)c2cccc3[nH]c(-c4ccc(OC[C@H](O)CO)cc4C(F)(F)F)nc23)s1` [Compound 743], the EC1.5 result was “A (EC1.5<1.0 uM)” and the “Fold Act. (percent maximum fold activation)” value is given as “A (Fold activation >200%)”.

For the molecule `O=C(Nc1ccccn1)c1cccc2[nH]c(-c3ccc(OC[C@H](O)CO)cc3C(F)(F)F)nc12` [Compound 744], the EC1.5 result is listed as “A (EC1.5<1.0 uM)” and the “Fold Act. (percent maximum fold activation)” value is given as “A (Fold activation >200%)”.

Consider `O=C(Nc1nccs1)c1cccc2[nH]c(-c3ccc(OC[C@@H](O)CO)cc3C(F)(F)F)nc12` [Compound 745], for which the EC1.5 entry is “A (EC1.5<1.0 uM)” and the “Fold Act. (percent maximum fold activation)” value is recorded as “A (Fold activation >200%)”.

For the molecule `Cc1cnc(NC(=O)c2cccc3[nH]c(-c4ccc(OC[C@@H](O)CO)cc4C(F)(F)F)nc23)s1` [Compound 746], the EC1.5 result is reported as “A (EC1.5<1.0 uM)” and the “Fold Act. (percent maximum fold activation)” value is “A (Fold activation >200%)”.

In the case of `O=C(Nc1cccc(OC[C@@H](O)CO)c1)c1cncc2[nH]c(-c3ccccc3C(F)(F)F)nc12` [Compound 747], the EC1.5 entry is given as “A (EC1.5<1.0 uM)” and the “Fold Act. (percent maximum fold activation)” value is on record as “A (Fold activation >200%)”.

On to `O=C(Nc1cccc(OC[C@H](O)CO)c1)c1cncc2[nH]c(-c3ccccc3C(F)(F)F)nc12` [Compound 748], for which the EC1.5 result is given as “A (EC1.5<1.0 uM)” and the “Fold Act. (percent maximum fold activation)” value is given as “A (Fold activation >200%)”.

Turning to `O=C(Nc1nccs1)c1cc(N2CCOCC2)cc2[nH]c(-c3ccc(F)cc3C(F)F)nc12` [Compound 749], the EC1.5 entry was “A (EC1.5<1.0 uM)” and the “Fold Act. (percent maximum fold activation)” value was “A (Fold activation >200%)”.

With `O=C(Nc1ccccn1)c1cc(N2CCOCC2)cc2[nH]c(-c3ccc(F)cc3C(F)F)nc12` [Compound 750], the EC1.5 result is “A (EC1.5<1.0 uM)” and the “Fold Act. (percent maximum fold activation)” value is listed as “A (Fold activation >200%)”.

Consider `O=C(Nc1cccnc1)c1cc(N2CCOCC2)cc2[nH]c(-c3ccc(F)cc3C(F)F)nc12` [Compound 751], for which the EC1.5 result was “A (EC1.5<1.0 uM)” and the “Fold Act. (percent maximum fold activation)” value was “A (Fold activation >200%)”.

For the molecule `O=C(Nc1cccnn1)c1cc(N2CCOCC2)cc2[nH]c(-c3ccc(F)cc3C(F)F)nc12` [Compound 752], the EC1.5 entry was “A (EC1.5<1.0 uM)” and the “Fold Act. (percent maximum fold activation)” value was “A (Fold activation >200%)”.

Consider `O=C(Nc1ccc(OC[C@@H](O)CO)cc1)c1cccc2[nH]c(-c3cccnc3)nc12` [Compound 753], for which the EC1.5 result is “A (EC1.5<1.0 uM)” and the “Fold Act. (percent maximum fold activation)” value is “A (Fold activation >200%)”.

As for `O=C(Nc1ccccc1)c1cccc2[nH]c(-c3ccc(Cl)cc3C(F)(F)F)nc12` [Compound 754], the EC1.5 entry is given as “A (EC1.5<1.0 uM)” and the “Fold Act. (percent maximum fold activation)” value is “A (Fold activation >200%)”.

Take `O=C(Nc1ccccc1)c1cccc2[nH]c(-c3ccc(F)cc3C(F)(F)F)nc12` [Compound 755]: the EC1.5 result is “A (EC1.5<1.0 uM)” and the “Fold Act. (percent maximum fold activation)” value was “A (Fold activation >200%)”.

As to `O=C(Nc1ccccc1)c1cccc2[nH]c(-c3cc(F)ccc3C(F)(F)F)nc12` [Compound 756], the EC1.5 entry is listed as “A (EC1.5<1.0 uM)” and the “Fold Act. (percent maximum fold activation)” value was “A (Fold activation >200%)”.

As for `O=C(Nc1nccs1)c1cncc2[nH]c(-c3ccc(OC[C@@H](O)CO)cc3C(F)(F)F)nc12` [Compound 758], the EC1.5 result is reported as “A (EC1.5<1.0 uM)” and the “Fold Act. (percent maximum fold activation)” value is recorded as “A (Fold activation >200%)”.

In the case of `Cc1cnc(NC(=O)c2cncc3[nH]c(-c4ccc(OC[C@@H](O)CO)cc4C(F)(F)F)nc23)s1` [Compound 759], the EC1.5 entry was “A (EC1.5<1.0 uM)” and the “Fold Act. (percent maximum fold activation)” value is “A (Fold activation >200%)”.

For the molecule `O=C(Nc1ccccn1)c1cncc2[nH]c(-c3ccc(OC[C@@H](O)CO)cc3C(F)(F)F)nc12` [Compound 760], the EC1.5 entry is “A (EC1.5<1.0 uM)” and the “Fold Act. (percent maximum fold activation)” value was “A (Fold activation >200%)”.

As to `O=C(Nc1nccs1)c1cncc2[nH]c(-c3ccc(OC[C@H](O)CO)cc3C(F)(F)F)nc12` [Compound 761], the EC1.5 entry was “A (EC1.5<1.0 uM)” and the “Fold Act. (percent maximum fold activation)” value is recorded as “A (Fold activation >200%)”.

Take `Cc1cnc(NC(=O)c2cncc3[nH]c(-c4ccc(OC[C@H](O)CO)cc4C(F)(F)F)nc23)s1` [Compound 762]: the EC1.5 entry is “A (EC1.5<1.0 uM)” and the “Fold Act. (percent maximum fold activation)” value is recorded as “A (Fold activation >200%)”.

As for `O=C(Nc1ccccn1)c1cncc2[nH]c(-c3ccc(OC[C@H](O)CO)cc3C(F)(F)F)nc12` [Compound 763], the EC1.5 entry was “A (EC1.5<1.0 uM)” and the “Fold Act. (percent maximum fold activation)” value is recorded as “A (Fold activation >200%)”.

Take `O=C(Nc1nccs1)c1cccc2nc(-c3ccc(N4CCCC4)cc3C(F)F)[nH]c12` [Compound 764]: the EC1.5 result was “A (EC1.5<1.0 uM)” and the “Fold Act. (percent maximum fold activation)” value was “A (Fold activation >200%)”.

On to `Cc1cnc(NC(=O)c2cccc3nc(-c4ccc(N5CCCC5)cc4C(F)F)[nH]c23)s1` [Compound 765], for which the EC1.5 result is “A (EC1.5<1.0 uM)” and the “Fold Act. (percent maximum fold activation)” value was “A (Fold activation >200%)”.

Turning to `O=C(Nc1ccccn1)c1cccc2nc(-c3ccc(N4CCCC4)cc3C(F)F)[nH]c12` [Compound 766], the EC1.5 result is reported as “B (EC1.5 1-25 uM)” and the “Fold Act. (percent maximum fold activation)” value was “A (Fold activation >200%)”.

Take `O=C(Nc1cccnc1)c1cc(N2CCOCC2)cc2[nH]c(-c3cc(F)ccc3C(F)F)nc12` [Compound 767]: the EC1.5 result is “A (EC1.5<1.0 uM)” and the “Fold Act. (percent maximum fold activation)” value was “A (Fold activation >200%)”.

On to `O=C(Nc1nccs1)c1cc(N2CCOCC2)cc2[nH]c(-c3cc(F)ccc3C(F)F)nc12` [Compound 768], for which the EC1.5 entry is “A (EC1.5<1.0 uM)” and the “Fold Act. (percent maximum fold activation)” value is recorded as “A (Fold activation >200%)”.

Regarding `O=C(Nc1ccccn1)c1cc(N2CCOCC2)cc2[nH]c(-c3cc(F)ccc3C(F)F)nc12` [Compound 769], the EC1.5 entry was “A (EC1.5<1.0 uM)” and the “Fold Act. (percent maximum fold activation)” value is recorded as “A (Fold activation >200%)”.

In the case of `O=C(Nc1cccnn1)c1cc(N2CCOCC2)cc2[nH]c(-c3cc(F)ccc3C(F)F)nc12` [Compound 770], the EC1.5 result is reported as “A (EC1.5<1.0 uM)” and the “Fold Act. (percent maximum fold activation)” value is recorded as “A (Fold activation >200%)”.

Consider `O=C(Nc1nccs1)c1cncc2nc(-c3ccc(OC[C@@H](O)CO)cc3C(F)F)[nH]c12` [Compound 771], for which the EC1.5 result was “A (EC1.5<1.0 uM)” and the “Fold Act. (percent maximum fold activation)” value is listed as “A (Fold activation >200%)”.

On to `Cc1cnc(NC(=O)c2cncc3nc(-c4ccc(OC[C@@H](O)CO)cc4C(F)F)[nH]c23)s1` [Compound 772], for which the EC1.5 entry is given as “A (EC1.5<1.0 uM)” and the “Fold Act. (percent maximum fold activation)” value is given as “A (Fold activation >200%)”.

On to `O=C(Nc1ccccn1)c1cncc2[nH]c(-c3ccc(OC[C@@H](O)CO)cc3C(F)F)nc12` [Compound 773], for which the EC1.5 entry is recorded as “A (EC1.5<1.0 uM)” and the “Fold Act. (percent maximum fold activation)” value is listed as “A (Fold activation >200%)”.

Regarding `O=C(Nc1cccnc1)c1cccc2[nH]c(-c3ccc(N4CCCC4)cc3C(F)F)nc12` [Compound 774], the EC1.5 entry is on record as “A (EC1.5<1.0 uM)” and the “Fold Act. (percent maximum fold activation)” value is on record as “A (Fold activation >200%)”.
